Test results as given in patent publication US6610712B2, “Aryloxy piperidinyl derivatives for the treatment of depression” (Wyeth, priority 2000, dated 2003).
Counter-ions that a name gives are not always drawn.

Key:
5-HT1A = biological target: T1, 5-HT1A (Homo sapiens, UniProt P08908); experiment: 5-HT1A receptor binding, [3H]DPAT; set-up: 5-HT1A [3H]DPAT, % at single concentration: dose or concentration left out as unconfirmed; settings: radioligand [3H]DPAT
T1 sequence (P08908 1-422): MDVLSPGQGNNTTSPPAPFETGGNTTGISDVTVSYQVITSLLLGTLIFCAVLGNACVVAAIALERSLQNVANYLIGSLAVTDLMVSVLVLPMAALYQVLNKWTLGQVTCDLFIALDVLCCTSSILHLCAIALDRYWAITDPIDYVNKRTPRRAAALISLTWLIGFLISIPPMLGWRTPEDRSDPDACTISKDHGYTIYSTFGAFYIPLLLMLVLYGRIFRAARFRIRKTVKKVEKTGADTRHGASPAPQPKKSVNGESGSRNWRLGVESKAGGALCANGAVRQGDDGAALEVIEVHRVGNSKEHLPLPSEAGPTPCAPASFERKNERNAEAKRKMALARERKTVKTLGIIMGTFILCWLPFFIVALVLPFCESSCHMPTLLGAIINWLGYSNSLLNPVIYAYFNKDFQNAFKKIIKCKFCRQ

Serotonin Transporter = Serotonin Transporter (Homo sapiens, UniProt P31645); experiment: Serotonin transporter binding, [3H]paroxetine; settings: radioligand [3H]paroxetine
Sequence of Serotonin Transporter (P31645 whole entry): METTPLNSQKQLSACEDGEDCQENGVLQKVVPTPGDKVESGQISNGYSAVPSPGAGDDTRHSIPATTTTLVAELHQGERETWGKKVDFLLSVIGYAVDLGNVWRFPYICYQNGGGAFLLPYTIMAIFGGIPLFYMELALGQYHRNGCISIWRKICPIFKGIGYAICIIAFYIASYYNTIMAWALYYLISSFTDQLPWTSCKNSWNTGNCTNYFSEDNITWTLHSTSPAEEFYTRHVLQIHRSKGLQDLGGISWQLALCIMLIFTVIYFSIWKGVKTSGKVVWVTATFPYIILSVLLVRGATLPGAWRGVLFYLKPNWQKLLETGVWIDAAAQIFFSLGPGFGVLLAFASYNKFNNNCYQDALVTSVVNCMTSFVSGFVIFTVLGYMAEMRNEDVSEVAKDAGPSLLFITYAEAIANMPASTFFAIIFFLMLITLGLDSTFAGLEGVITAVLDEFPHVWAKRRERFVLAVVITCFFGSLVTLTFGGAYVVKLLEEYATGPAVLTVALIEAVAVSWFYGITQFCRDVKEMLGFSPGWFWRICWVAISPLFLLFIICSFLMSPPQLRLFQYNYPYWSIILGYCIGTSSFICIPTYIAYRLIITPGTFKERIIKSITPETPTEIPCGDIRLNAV

| Compound | Ki (5-HT1A) | Ki (Serotonin Transporter) | melting point | 5-HT1A [3H]DPAT, % at single concentration (5-HT1A) |
| --- | --- | --- | --- | --- |
| 6-Fluoro-3-{1-[2-(2,3-dihydro-benzo[1,4]dioxan-5-yloxy)-ethyl]-1,2,3,6-tetrahydro-pyridin-4-yl}-1H-indole [Example 6] | 83.7 nM | 0.15 nM | – | – |
| Fc1ccc2[nH]cc(CC3CCN(CCOc4cccc5c4OCCO5)CC3)c2c1 (as salt: fumarate) (hydrate or solvate) [Example 2, 5-Fluoro-3-{1-[2-(2,3-dihydrobenzo[1,4]dioxin-5-yloxy)ethyl]-piperidin-4-ylmethyl}-1H-indole] | – | – | 157 to 159 °C | – |
| Fc1ccc2[nH]cc(CC3CCN(CCOc4ccc5c(c4)CCC5)CC3)c2c1 (as salt: hydrochloride) (hydrate or solvate) [Example 3, 5-Fluoro-3-{1-[2-(indan-5-yloxy)-ethyl]-piperidin-4-ylmethyl}-1H-indole] | – | – | 150 to 152 °C | – |
| COc1ccccc1OCCN1CCC(Cc2c[nH]c3ccc(F)cc23)CC1 (as salt: oxalate) (hydrate or solvate) [Example 1, 5-Fluoro-3-{1-[2-(2-methoxyphenoxy)ethyl]-piperidin-4-ylmethyl}-1H-indole] | – | – | 91 °C | – |
| C1=C(c2c[nH]c3ccccc23)CCN(CCOc2cccc3c2OCCO3)C1 (as salt: oxalate) [Example 4, 3-{1-[2-(2,3-Dihydro-benzo[1,4]dioxan-5-yloxy)-ethyl]-1,2,3,6-tetrahydro-pyridin-4-yl}-1H-indole] | – | – | 85 to 88 °C | – |
| Fc1ccc2[nH]cc(C3=CCN(CCOc4cccc5c4OCCO5)CC3)c2c1 (as salt: oxalate) [Example 5, 5-Fluoro-3-{1-[2-(2,3-dihydro-benzo[1,4]dioxan-5-yloxy)-ethyl]-1,2,3,6-tetrahydro-pyridin-4-yl}-1H-indole] | – | – | 195 to 198 °C | – |
| COc1ccccc1OCCN1CCC(Cc2c[nH]c3ccc(F)cc23)CC1 [Example 1, 5-Fluoro-3-{1-[2-(2-methoxyphenoxy)ethyl]-piperidin-4-ylmethyl}-1H-indole] | 180 nM | 0.35 nM | – | – |
| Fc1ccc2[nH]cc(CC3CCN(CCOc4cccc5c4OCCO5)CC3)c2c1 [Example 2, 5-Fluoro-3-{1-[2-(2,3-dihydrobenzo[1,4]dioxin-5-yloxy)ethyl]-piperidin-4-ylmethyl}-1H-indole] | 168 nM | 0.011 nM | – | – |
| Fc1ccc2[nH]cc(CC3CCN(CCOc4ccc5c(c4)CCC5)CC3)c2c1 [Example 3, 5-Fluoro-3-{1-[2-(indan-5-yloxy)-ethyl]-piperidin-4-ylmethyl}-1H-indole] | – | 2.24 nM | – | 0% @ 0.1 M |
| C1=C(c2c[nH]c3ccccc23)CCN(CCOc2cccc3c2OCCO3)C1 [Example 4, 3-{1-[2-(2,3-Dihydro-benzo[1,4]dioxan-5-yloxy)-ethyl]-1,2,3,6-tetrahydro-pyridin-4-yl}-1H-indole] | 78.3 nM | 0.17 nM | – | – |
| Fc1ccc2[nH]cc(C3=CCN(CCOc4cccc5c4OCCO5)CC3)c2c1 [Example 5, 5-Fluoro-3-{1-[2-(2,3-dihydro-benzo[1,4]dioxan-5-yloxy)-ethyl]-1,2,3,6-tetrahydro-pyridin-4-yl}-1H-indole] | 83.3 nM | 1.17 nM | – | – |
